# In ChEMBL document CHEMBL1149262, “Monoamine transporter binding, locomotor activity, and drug discrimination properties of 3-(4-substituted-phenyl)tropane-2-carboxylic acid methyl ester isomers” (J Med Chem, 2004):
# Calls of active or inactive are those of the source. No cut-off for these calls is given here.
# Tests used:
# Mus musculus [1] = assay: Activity in CD1 mouse assessed as stereotypy at 100 mg/kg, ip after 4 hrs; format: functional, organism-based; parameters: dose 100 mg/kg
# Mus musculus [2] = assay: Activity in CD1 mouse assessed as stereotypy at 10 mg/kg, ip after 4 hrs; format: functional, organism-based; parameters: dose 10 mg/kg
# Mus musculus [3] = assay: Locomotor activity in CD1 mouse assessed as stimulation at 1 mg/kg, ip after 2 hrs relative to control; format: functional; details: route intraperitoneal
# Mus musculus [4] = assay: Locomotor activity in CD1 mouse assessed as stimulation at 3 mg/kg, ip after 3 hrs relative to control; format: functional; details: route intraperitoneal
# Mus musculus [5] = assay: Locomotor activity in ip dosed CD1 mouse in peak hour; format: functional
# Mus musculus [6] = assay: Locomotor activity in CD1 mouse assessed as stimulation at 3 mg/kg, ip after 4 hrs relative to control; format: functional; details: route intraperitoneal
# Rattus norvegicus [7] = assay: Drug discrimination effect in CD Albino rat assessed as percent of rat choosing cocaine lever at 0.17 mg/kg, ip; format: functional; details: route intraperitoneal
# Mus musculus [8] = assay: Locomotor activity in CD1 mouse assessed as stimulation at 1 mg/kg, ip after 4 hrs relative to control; format: functional; details: route intraperitoneal
# [9] = biological target: Sodium-dependent dopamine transporter (Homo sapiens, UniProt Q01959); assay: Displacement of [3H]WIN-35428 from DAT
# Mus musculus [10] = assay: Locomotor activity in CD1 mouse assessed as stimulation at 3 mg/kg, ip after 2 hrs relative to control; format: functional; details: route intraperitoneal
# Mus musculus [11] = assay: Locomotor activity in CD1 mouse assessed as stimulation at 3 mg/kg, ip after 1 hr relative to control; format: functional; details: route intraperitoneal
# Mus musculus [12] = assay: Locomotor activity in CD1 mouse assessed as stimulation at 0.3 mg/kg, ip after 3 hrs relative to control; format: functional; details: route intraperitoneal
# Mus musculus [13] = assay: Activity in CD1 mouse assessed as straub tail at 100 mg/kg, ip after 4 hrs; format: functional, organism-based; parameters: dose 100 mg/kg
# Mus musculus [14] = assay: Activity in CD1 mouse assessed as stereotypy at 1 mg/kg, ip after 4 hrs; format: functional, organism-based; parameters: dose 1 mg/kg
# Mus musculus [15] = assay: Activity in CD1 mouse assessed as hind limb splay at 100 mg/kg, ip after 4 hrs; format: functional, organism-based; parameters: dose 100 mg/kg; details: Hindlimb
# Rattus norvegicus [16] = assay: Drug discrimination effect in CD Albino rat assessed as percent of rat choosing cocaine lever at 0.3 mg/kg, ip; format: functional; details: route intraperitoneal
# Rattus norvegicus [17] = assay: Cocaine discrimination in ip dosed CD Albino rat; format: functional
# Rattus norvegicus [18] = assay: Drug discrimination effect in CD Albino rat assessed as percent of rat choosing cocaine lever at 0.1 mg/kg, ip; format: functional; details: route intraperitoneal
# Mus musculus [19] = assay: Locomotor activity in CD1 mouse assessed as stimulation at 0.3 mg/kg, ip after 4 hrs relative to control; format: functional; details: route intraperitoneal
# Mus musculus [20] = assay: Locomotor activity in CD1 mouse assessed as stimulation at 0.1 mg/kg, ip after 2 hrs relative to control; format: functional; details: route intraperitoneal
# Mus musculus [21] = assay: Locomotor activity in CD1 mouse assessed as stimulation at 0.1 mg/kg, ip after 4 hrs relative to control; format: functional; details: route intraperitoneal
# Mus musculus [22] = assay: Locomotor activity in CD1 mouse assessed as stimulation at 1 mg/kg, ip after 3 hrs relative to control; format: functional; details: route intraperitoneal
# Mus musculus [23] = assay: Locomotor activity in CD1 mouse assessed as stimulation at 0.1 mg/kg, ip after 3 hrs relative to control; format: functional; details: route intraperitoneal
# Mus musculus [24] = assay: Activity in CD1 mouse assessed as hyperactivity at 1 mg/kg, ip after 4 hrs; format: functional, organism-based; parameters: dose 1 mg/kg
# Mus musculus [25] = assay: Locomotor activity in CD1 mouse assessed as stimulation at 0.1 mg/kg, ip after 1 hr relative to control; format: functional; details: route intraperitoneal
# Mus musculus [26] = assay: Locomotor activity in CD1 mouse assessed as stimulation at 0.3 mg/kg, ip after 1 hr relative to control; format: functional; details: route intraperitoneal
# Mus musculus [27] = assay: Locomotor activity in CD1 mouse assessed as stimulation at 0.3 mg/kg, ip after 2 hrs relative to control; format: functional; details: route intraperitoneal
# Mus musculus [28] = assay: Locomotor activity in CD1 mouse assessed as stimulation at 1 mg/kg, ip after 1 hr relative to control; format: functional; details: route intraperitoneal
# Mus musculus [29] = assay: Activity in CD1 mouse assessed as circling at 1 mg/kg, ip after 4 hrs; format: functional, organism-based; parameters: dose 1 mg/kg
# Mus musculus [30] = assay: Locomotor activity in CD1 mouse assessed as stimulation at 10 mg/kg, ip after 2 hrs relative to control; format: functional; details: route intraperitoneal
# Mus musculus [31] = assay: Locomotor activity in CD1 mouse assessed as stimulation at 10 mg/kg, ip after 1 hr relative to control; format: functional; details: route intraperitoneal
# Rattus norvegicus [32] = assay: Drug discrimination effect in CD Albino rat assessed as percent of rat choosing cocaine lever at 5.6 mg/kg, ip; format: functional; details: route intraperitoneal
# Mus musculus [33] = assay: Locomotor activity in CD1 mouse assessed as stimulation at 10 mg/kg, ip after 3 hrs relative to control; format: functional; details: route intraperitoneal
# [34] = biological target: Sodium-dependent noradrenaline transporter (Homo sapiens, UniProt P23975); assay: Displacement of [3H]nisoxetine from NET
# Mus musculus [35] = assay: Locomotor activity in CD1 mouse assessed as stimulation at 30 mg/kg, ip after 4 hrs relative to control; format: functional; details: route intraperitoneal
# Mus musculus [36] = assay: Activity in CD1 mouse assessed as hyperactivity at 100 mg/kg, ip after 4 hrs; format: functional, organism-based; parameters: dose 100 mg/kg
# Mus musculus [37] = assay: Locomotor activity in CD1 mouse assessed as stimulation at 10 mg/kg, ip after 4 hrs relative to control; format: functional; details: route intraperitoneal
# Mus musculus [38] = assay: Locomotor activity in CD1 mouse assessed as stimulation at 100 mg/kg, ip after 4 hrs relative to control; format: functional; details: route intraperitoneal
# Mus musculus [39] = assay: Activity in CD1 mouse assessed as slight or intermittent hyperactivity at 10 mg/kg, ip after 4 hrs; format: functional, organism-based; parameters: dose 10 mg/kg
# Mus musculus [40] = assay: Locomotor activity in CD1 mouse assessed as stimulation at 30 mg/kg, ip after 2 hrs relative to control; format: functional; details: route intraperitoneal
# Mus musculus [41] = assay: Activity in CD1 mouse assessed as circling at 100 mg/kg, ip after 4 hrs; format: functional, organism-based; parameters: dose 100 mg/kg
# Mus musculus [42] = assay: Locomotor activity in CD1 mouse assessed as stimulation at 100 mg/kg, ip after 3 hrs relative to control; format: functional; details: route intraperitoneal
# Rattus norvegicus [43] = assay: Drug discrimination effect in CD Albino rat assessed as percent of rat choosing cocaine lever at 10 mg/kg, ip; format: functional; details: route intraperitoneal
# Rattus norvegicus [44] = assay: Drug discrimination effect in CD Albino rat assessed as percent of rat choosing cocaine lever at 3 mg/kg, ip; format: functional; details: route intraperitoneal
# Mus musculus [45] = assay: Locomotor activity in CD1 mouse assessed as stimulation at 30 mg/kg, ip after 3 hrs relative to control; format: functional; details: route intraperitoneal
# Mus musculus [46] = assay: Locomotor activity in CD1 mouse assessed as stimulation at 100 mg/kg, ip after 2 hrs relative to control; format: functional; details: route intraperitoneal
# Mus musculus [47] = assay: Locomotor activity in CD1 mouse assessed as stimulation at 30 mg/kg, ip after 1 hr relative to control; format: functional; details: route intraperitoneal
# Mus musculus [48] = assay: Locomotor activity in CD1 mouse assessed as stimulation at 100 mg/kg, ip after 1 hr relative to control; format: functional; details: route intraperitoneal
# Rattus norvegicus [49] = assay: Drug discrimination effect in CD Albino rat assessed as percent of rat choosing cocaine lever at 1 mg/kg, ip; format: functional; details: route intraperitoneal
# Rattus norvegicus [50] = assay: Drug discrimination effect in CD Albino rat assessed as percent of rat choosing cocaine lever at 0.56 mg/kg, ip; format: functional; details: route intraperitoneal
# Chain of Sodium-dependent noradrenaline transporter (P23975 whole entry): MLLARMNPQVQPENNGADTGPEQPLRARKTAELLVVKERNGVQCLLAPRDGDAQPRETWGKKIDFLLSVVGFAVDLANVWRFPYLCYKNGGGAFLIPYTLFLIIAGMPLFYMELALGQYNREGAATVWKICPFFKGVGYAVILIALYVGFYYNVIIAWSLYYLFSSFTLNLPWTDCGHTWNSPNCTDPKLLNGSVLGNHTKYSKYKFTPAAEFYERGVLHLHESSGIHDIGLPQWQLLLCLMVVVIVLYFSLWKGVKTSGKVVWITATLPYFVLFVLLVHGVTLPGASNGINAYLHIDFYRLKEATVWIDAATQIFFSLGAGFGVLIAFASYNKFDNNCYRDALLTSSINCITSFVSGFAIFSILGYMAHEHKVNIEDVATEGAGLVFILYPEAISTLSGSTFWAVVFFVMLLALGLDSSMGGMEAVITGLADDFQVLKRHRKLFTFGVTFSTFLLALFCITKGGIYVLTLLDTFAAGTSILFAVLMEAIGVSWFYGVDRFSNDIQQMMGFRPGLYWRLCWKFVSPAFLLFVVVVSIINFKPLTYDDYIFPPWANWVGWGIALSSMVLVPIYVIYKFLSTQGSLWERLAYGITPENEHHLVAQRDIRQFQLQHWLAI
# Chain of Sodium-dependent dopamine transporter (Q01959 whole entry): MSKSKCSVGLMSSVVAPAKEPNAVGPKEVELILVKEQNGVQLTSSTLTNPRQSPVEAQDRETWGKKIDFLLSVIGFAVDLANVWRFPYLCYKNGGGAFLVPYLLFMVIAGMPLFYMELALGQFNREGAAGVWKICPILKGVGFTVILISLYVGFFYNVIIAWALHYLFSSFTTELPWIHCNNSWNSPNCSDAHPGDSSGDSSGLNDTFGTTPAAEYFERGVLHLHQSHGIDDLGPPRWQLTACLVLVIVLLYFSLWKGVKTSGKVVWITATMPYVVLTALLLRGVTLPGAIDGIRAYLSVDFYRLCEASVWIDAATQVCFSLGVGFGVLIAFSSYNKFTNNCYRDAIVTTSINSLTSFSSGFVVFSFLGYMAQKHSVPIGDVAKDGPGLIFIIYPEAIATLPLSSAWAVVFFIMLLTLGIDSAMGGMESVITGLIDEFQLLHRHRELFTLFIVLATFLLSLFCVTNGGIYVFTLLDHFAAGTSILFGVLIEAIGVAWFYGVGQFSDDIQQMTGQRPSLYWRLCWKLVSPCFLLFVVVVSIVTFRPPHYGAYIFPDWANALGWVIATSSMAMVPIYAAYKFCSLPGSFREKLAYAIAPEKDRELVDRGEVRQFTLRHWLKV
SMILES,Activity (Mus musculus [1]),Activity (Mus musculus [2]),Activity (Mus musculus [3]) [%],Activity (Mus musculus [4]) [%],ED50 (Mus musculus [5]) [mg/kg],Activity (Mus musculus [6]) [%],Activity (Rattus norvegicus [7]) [%],Activity (Mus musculus [8]) [%],IC50 [9] [nM],Activity (Mus musculus [10]) [%],Activity (Mus musculus [11]) [%],Activity (Mus musculus [12]) [%],Activity (Rattus norvegicus [16]) [%],ED50 (Rattus norvegicus [17]) [mg/kg],Activity (Rattus norvegicus [18]) [%],Activity (Mus musculus [19]) [%],Activity (Mus musculus [22]) [%],Activity (Mus musculus [26]) [%],Activity (Mus musculus [27]) [%],Activity (Mus musculus [28]) [%],further results
COC(=O)C1C2CC[C@H](C[C@@H]1c1ccc(Cl)cc1)N2C (stereo partly specified),Active,Active,958,589,0.2,1643,44,1507,1.1,-36,416,1201,100,0.13,50,235,1892,462,1426,645,Activity (Mus musculus [13]): Active; Activity (Mus musculus [14]): Active; Activity (Mus musculus [15]): Active; Activity (Mus musculus [20]): 53%; Activity (Mus musculus [21]): 17%; Activity (Mus musculus [23]): 91%; Activity (Mus musculus [24]): Active; Activity (Mus musculus [25]): -26%; Activity (Mus musculus [29]): Active
COC(=O)[C@@H]1C2CCC(C[C@H]1c1ccccc1)N2C (stereo partly specified),Active,Active,,-35,21.8,12,,,101,-39,-30,,,3.19,,,,,,,Activity (Mus musculus [30]): 6%; Activity (Mus musculus [31]): 43%; Activity (Rattus norvegicus [32]): 100%; Activity (Mus musculus [33]): -13%; IC50 [34]: 541 nM; Ki [34]: 271 nM; Activity (Mus musculus [35]): 97%; Activity (Mus musculus [36]): Active; Activity (Mus musculus [37]): 6%; Activity (Mus musculus [38]): 390%; Activity (Mus musculus [39]): Active; Activity (Mus musculus [40]): 17%; Activity (Mus musculus [41]): Active; Activity (Mus musculus [42]): 234%; Activity (Rattus norvegicus [43]): 100%; Activity (Rattus norvegicus [44]): 13%; Activity (Mus musculus [45]): 47%; Activity (Mus musculus [46]): 191%; Activity (Mus musculus [47]): 161%; Activity (Mus musculus [48]): 338%
COC(=O)[C@@H]1C2CC[C@H](C[C@@H]1c1ccc(C)cc1)N2C,Active,Active,298,157,0.6,30,25,-4,1.7,460,533,-61,57,0.31,0,-28,41,19,-3,305,Activity (Mus musculus [30]): 476%; Activity (Mus musculus [31]): 283%; Activity (Rattus norvegicus [49]): 86%; Activity (Mus musculus [33]): 343%; Activity (Rattus norvegicus [50]): 71%; IC50 [34]: 60 nM; Ki [34]: 36 nM; Activity (Mus musculus [37]): 273%
